How the values were obtained:
[1] = tested on: OVA-induced asthmatic mice; assay: OVA-induced bronchial asthma mouse model, Standard/Resolution protocols, drug before each i.n. challenge; type: in vivo, mouse (female BALB/c); conditions: 1-, 2- and 3-month groups, versus OVA
Text: The OVA-Induced Bronchial Asthma Mouse Model for Inhibition of Mast Cell Degranulation
Reagents: Crystalline OVA was obtained from Pierce Chem. Co. (Rockford, Ill.) aluminum potassium sulfate (alum) from Sigma Chem. Co. (St. Louis, Mo.), pyrogen-free distilled water from Baxter, Healthcare Corporation (Deerfield, Ill.), 0.9% sodium chloride (normal saline) from Lymphomed (Deerfield, Ill.) and Trappsol™ HPB-L100 (aqueous hydroxypropyl beta cyclodextrin; 45 wt/vol % aqueous solution) from Cyclodextrin Technologies Development, Inc. (Gainesville, Fla.). The OVA (500 μg/ml in normal saline) was mixed with equal volumes of 10% (wt/vol) alum in distilled water. The mixture (pH 6.5 using 10 N NaOH) after incubation for 60 minutes at room temperature underwent centrifugation at 750 g for 5 minutes; the pellet was resuspended to the original volume in distilled water and used within one hour.
The selective 5-lipoxtgenase inhibitor, Zileuton (N-[1-benzo[b]thien-2-ylethyl]-N-hydroxyurea; J. Pharmacol Exp Ther. 1991; 256: 929-937), was kindly provided by Drs. Bell and George W. Carter (Abbott Laboratories, Abbott Part, Ill.). Zileuton was dissolved in Trappsol.™. Histatek, Inc. (Seattle, Wash.) provided the mast cell degranulation inhibitor, f-Met-Leu-Phe-Phe (“HK-X”).
Female BALB/c […] (6-8 wk of age at purchase; D and K, Seattle Wash.) were housed under conventional conditions for the studies.
Allergen Immunization/Challenge Protocols: Mice received an i.p. injection of 0.2 ml (100 μg) of OVA with alum on the different protocols of Standard (FIG. 5A) and Resolution (FIG. 5B) (J. Exp Med. 1996; 184: 1483-1494). According to the different protocols, mice were anesthetized with 0.2 ml i.p. of ketamine (0.44 mg/ml)/xylazine (6.3 mg/ml) in normal saline before receiving an intranasal (i.n.) does of 100 μg OVA in 0.05 ml normal saline and an i.n. dose of 50 μg OVA in 0.05 ml normal saline separately on different days. Two control groups were used. Accordingly, the first group received normal saline with alum i.p. and normal saline without alum i.n.; the second group received OVA with alum i.p., OVA without alum i.n., and normal saline, alone.
The trachea and left lung (the right lung is used for bronchoalveolar lavage (“BAL”)) were obtained and fixed in 10% neutral formaldehyde solution at room temperature for 6˜15h. After being embedded in paraffin, the tissues were cut into 5-um sections and processed with the different staining or immunolabling further. Discombe's eosinophil staining was used for counting the cell numbers with the counterstain of methylene blue. The eosinophil number per unit airway area (2,200 μm^2) was determined by morphometry (J. Pathol. 1992; 166: 395-404; Am Rev Respir Dis. 1993; 147:448-456). Fibrosis was identified with the Masson's trichrome staining. Airway mucus was identified by the following staining method: methylene blue, hematoxylin and eosin, mucicarmine, alcian blue, and alcian blue/periodic acid-Schiff (PAS) reaction (Troyer, H., “Carbohydrates” in Principles and Techniques of Histochemistry, Little, Brown and Company, Boston, Mass., 1980: 89-121; Sheehan, D. C., et al., “Carbohydrates” in Theory and Practice of Histotechnology, Battle Press, Columbus, Ohio, 1980: 159-179). Mucin was stained with mucicarmine solution; metanil yellow counterstain was employed.
Acidic mucin and sulfated mucosubstances were stained with alcian blue, pH 2.5; nuclear fast red counterstain was used. Neutral and acidic mucosubstances were identified by alcian blue. pH 2.5, and PAS reaction. The degree of mucus plugging of the airways (0.5-0.8 mm in diameter) was also assessed by morphometry. The percent occlusion of airway diameter by mucus was classified on a semiquantitative scale from 0 to 4+ as described in Figure Legends. The histologic and morphometric analyses were performed by individuals blinded to the protocol design. […]

[2] = tested on: mast cells; assay: Rat skin model for inhibition of mast cell degranulation induced by Compound 48/80 (area of capillary permeability/bluing); type: in vivo, rat (male Sprague-Dawley); conditions: for % Degranulation: percent mast cell degranulation produced by 48/80, 100 nanomoles peptide, 0.15 μg Compound 48/80
Text: The Rat Skin Model for Determination of Inhibition of Mast Cell Degranulation
Allergy induced asthma results from exposure of substances (allergens) to which an organism has become hypersensitized. Exposure to allergen results in degranulation of mast cells in the lung, releasing leukotrienes and histamines. […] Respiratory symptoms resulting from such an exposure range from mild (itching and sneezing) to potentially fatal (asthma), including in extreme chronic cases death by anaphylaxis.
In this model, the blood plasma of the experimental rat is labeled with the dye trypan blue. This soluble dye is carried in the bloodstream as a passive marker of plasma itself, and is excluded from live cells. Intact blood vessels including the capillary system, retain this dye under normal circumstances. A compound, which induces degranulation of mast cells (resulting in leukotriene and histamine release), is injected into the skin to simulate allergen-induced degranulation. In these experiments, Compound 48/80 was used for this purpose. In the events following leukotriene and histamine release, capillary permeability is increased, and plasma, dyed blue, leaks from capillaries and dyes the skin surrounding the injection site blue. The area of bluing is a measure of the amount of Compound 48/80 injected.
A compound can be tested for “anti-leukotriene” and/or “anti-histamine” activity by mixing it with Compound 48/80 prior to injection.
The rat skin model was undertaken and validated. Various peptides were tested at a predetermined dose for anti-leukotriene and/or anti-histamine activity. The dose selected allowed a general comparison to f-Met-Leu-Phe, which was standard compound for comparison.
A “dose response” titration was performed for some compounds and compared with the standard compound. Observing serial decreases in the size areas of capillary permeability using serially smaller doses of the putative inhibitory compound validates the inhibition of leukotriene and/or histamine release observed in the initial predetermined dose test.
Reagents were obtained from Sigma or Aldrich, with the exception of ketamine, a veterinary anaesthetic that was obtained from various veterinary suppliers. The rats used were male Sprague-Dawley breed, 220-240 g at time of purchase from B&K International.
For the rat skin reaction, rats were anaesthetized with 0.25 ml 10 mg/ml ketamine. 1.0 ml trypan blue in saline (sterile filtered) was administered in a tail vein, and the back of the rat was shaved. Four intradermal injection sites per rat were used for test and control injections.
Compound 48/80 was prepared as a 1.5 mg/ml stock solution in saline. […] Serial dilutions in saline to working levels were prepared just prior to injection of each rat.
Peptides were prepared as a 23 mM stock solution in DMSO, and stored at −20° C. between experiments. At the time of use, the frozen stock solutions were thawed, and appropriate aliquots added to dilutions of Compound 48/80, along with appropriate amounts of DMSO, to result in the ratio of 5 μl DMSO to 0.1 ml aqueous Compound 48/80.
For injections, 0.1 ml Compound […], +/− test compounds were injected intradermally into anaesthetized, dyed, and shaved rats. Following a 15 minute incubation, the rats were sacrificed by cervical dislocation and the back skin was evulsed and placed on a light box. An image of the backlit skin was digitized using a CCD video capture camera and compatible hardware/software. The digitized image was analyzed using a scientific graphics analysis software package, and the areas of capillary permeability (bluing) were integrated and digital values were obtained for further analysis.
A dose response curve was generated using Compound 48/80 at various doses from ca. 0.01 μg through ca 15 μg. […] A dose of 0.15 μg of Compound 48/80 was selected for conducting further tests.
A dose response curve was prepared for the standard compound, f-Met-Leu-Phe, using the selected dose of 0.15 μg Compound 48/80. […]

Compound: CC(c1cc2ccccc2s1)N(O)C(N)=O (centres unmarked) [Zileuton, N-[1-benzo[b]thien-2-ylethyl]-N-hydroxyurea, reference compound]
- Reduction of airway eosinophils over time course [1]: reduced eosinophils generally through 1-3 month

Compound: N-acetyl-Met-Leu-Phe [Example 3]
- % Degranulation [2]: 98%

Compound: f-Met-Leu-Phe [Example 2, reference compound]
- Inhibition of degranulation induced by Compound 48/80, dose response curve ([2]; doses of 0 to about 230 nM peptide, 0.15 μg Compound 48/80 (FIG. 2, FIG. 3)): Inhibition of degranulation induced by Compound 48/80 was clearly shown
- % Degranulation [2]: 60%

Compound: f-Met-Leu-Tyr [Example 10]
- % Degranulation [2]: 30%
